The test system of test [1] is murine bEND.3 endothelial cell line. The test is described as follows: LPS-induced MIP-2 and IL-6 production by endothelial cells (ELISA of supernatants). To be noted: 15 μg/well or 20 μg/well peptide, 15 min pre-treatment, LPS 12.5 ng/well, 4-hour supernatants. In kind it is cell-based. The method, then:
FIG. 1 is a set of bar graphs showing P13 inhibition of macrophage inflammatory protein (MIP)-2 and interleukin (IL)-6. Murine endothelial cell line bEND.3 (2×10^5 cells/48-well plate) were pre-treated for 15 minutes with P13 or scrambled control peptide at matching peptide concentrations (15 or 20 μg/well) and then with LPS (12.5 ng/well). MIP-2 and IL-6 were quantified by ELISA from 4-hour cell-free supernatants. Cytokine values represent means +/−S.D. from quadruplicate wells/experimental condition.
Quantification of cytokines from cell supernatants. IL-6 and MIP-2 ELISA kits were used to assay cytokine levels in cell culture supernatants according to the protocols provided by the manufacturer (R&D Systems, Minneapolis, Minn.).
Because endothelial cells can be activated and even damaged in response to LPS exposure, the effect of treatment with peptide P13 on LPS-induced cytokine responses from the murine bEND.3 endothelial cell line was examined. Treatment of the bEND cells with LPS induced secretion of MIP-2 and IL-6.

The subject of test [2] is BALB/c mice. The test is described as follows: LPS-induced serum TNF-α and soluble ICAM-1 in mice (ELISA). It counts as in vivo. Particulars: serum 2 hours after LPS. The method, then:
FIG. 2 is a set of bar graphs showing P13 inhibition of serum inflammatory mediators. BALB/c mice were injected intraperitoneally (i.p.) with 5 mg/kg LPS and 30 minutes later injected i.p. with P13 (15, 50, or 75 μg) or PBS. Two hours after LPS injection, serum was collected and TNF-α and soluble ICAM-1 were quantified by ELISA. Values represent means +/−S.D.
Serum cytokines and soluble ICAM-1. BALB/c female mice were injected intraperitoneally (i.p.) with 5 mg/kg of LPS and peptide P13 (15, 50, or 75 μg) or PBS was injected i.p. 30 minutes later. Two hours after injection of LPS, serum was collected and TNF-α and soluble ICAM-1 quantified by ELISA (R&D Systems).
To determine the effect of peptide treatment on the induction of serum inflammatory mediators, mice were injected with a sub-lethal high dose of LPS and 30 minutes later with P13 or phosphate buffered saline (PBS). Serum was collected 2 hours after treatment with LPS. TNF-α and soluble ICAM-1 were quantified by ELISA. […] The effect of delayed peptide P13 treatment at different doses of peptide on LPS-induced production of soluble ICAM-1 was examined.
(ELISA stands for enzyme-linked immunosorbent assay.)

Test [3] has as its system BALB/c mice. The test is described as follows: LPS-induced sepsis model, lethality after high dose LPS. To be noted: LPS 70 mg/kg i.p.; peptide 75 μg s.c. at 2 and 6 hours after LPS. It counts as in vivo. The method, then:
FIG. 3 is a line graph illustrating decreased mortality in P13-treated mice after high dose LPS. BALB/c mice were injected i.p. with LPS (70 mg/kg) and 2 and 6 hrs later treated s.c. with P13 or control peptide (75 μg/mouse/injection). The mice (10 animals/group) were monitored every 3-4 hours for lethality, and the experiment was terminated after 96 hrs.
LPS-induced sepsis. Female BALB/c mice were injected i.p. with 70 mg/kg of LPS. At 2 and 6 hours after injection of LPS, mice were treated with scrambled control peptide or peptide P13. The peptides were administered subcutaneously at 75 μg/animal/injection time, with 10 mice/treatment group. The mice were monitored every 3-4 hours and the experiment was terminated after 96 hours.
As P13 inhibited production of inflammatory mediators in vivo, an LPS-induced murine sepsis model was used to determine the effect of peptide P13 on survival. Mice were injected with lethal dose of LPS (70 mg/kg) and treated 2 and 6 hours later with scrambled control peptide (75 μg) or a matching concentration of peptide P13. […] The experiment was terminated at 96 hours and P13 treated mice remained at 40% survival (FIG. 3). These studies confirm the in vivo activity of peptide P13 to reduce lethality in an LPS sepsis model even when peptide treatment is initiated after administration of LPS.

The subject of test [4] is animals treated with low dose LPS plus D-GaLN. Description: Survival after low dose LPS plus D-GaLN. It counts as in vivo.
The next test deals with HC-NPC co-cultures. The test is described as follows: Inflammatory mediators in LPS-stimulated HC-NPC co-cultures. In kind it is cell-based. To be noted: stimulated with LPS.
The next test concerns TLR-dependent signaling. To be noted: in vitro; cited from earlier work.

Take “DIVKLTVYDCI-RRRRRRRRR (listed as Vaccinia virus) [P13, A52R amino acids 125 to 135 linked to nine arginines]”: in test [1], the “inhibition of IL-6 production” value is on record as more than 90% and the “inhibition of MIP-2 production” value is more than 90%. In the test with BALB/c mice [2] (50 μg i.p. 30 min after 5 mg/kg LPS i.p.), the “inhibition of serum TNF-α” value is “did not reduce”. For the same substance, in the test on BALB/c mice [2] (75 μg i.p. 30 min after 5 mg/kg LPS i.p.), the “inhibition of serum TNF-α” value is on record as “significant inhibition”. In the test on BALB/c mice [3], the “lethality at 36 hours” value came to 60%, the “lethality at 74 hours” value came to 60% and the “survival at 96 hours” value is given as 40%. Moreover, the survival entry in test [4] is reported as “enhance survival”. Further, the “production of inflammatory mediators” value in the test on HC-NPC co-cultures was “reduced the production of inflammatory mediators”. Moreover, in the test with TLR-dependent signaling, the “inhibition of TLR-dependent signaling” value is “capable of in vitro inhibition”.
For “ITCVDVDLIYK-RRRRRRRRR (ITCVDVDLIYKRRRRRRRRR; listed as Vaccinia virus) [scrambled control peptide, scrambled control of P13 with nine arginines, reference compound]”, in test [1], the “inhibition of IL-6 production” value is recorded as “only modest inhibition” and the “inhibition of MIP-2 production” value is “only modest inhibition”. Moreover, in the test on BALB/c mice [3], the “lethality at 36 hours” value is reported as 90% and the “lethality at 74 hours” value worked out at 100%.
